According to patent US20080194585A1, “Fungicidal Pyrazine Derivatives” (priority 2005, published 2008):
Marks after values point to notes of the source that are not given here.

How the values were obtained:
Septoria nodorum = experiment: Test H: wheat glum blotch, preventive spray on wheat seedlings; conditions: 40 ppm (marked *); 100 = 100% disease control, 0 = no control
Description: (the causal agent of wheat glum blotch) and incubated in a saturated atmosphere at 20° C. for 48 h, and then moved to a growth chamber at 22° C. for 5 days, after which disease ratings were made.

Phytophthora infestans = experiment: whole plant or invertebrate; type: in vivo; conditions: 100 = 100% disease control
[1] = test system: Colletotrichum orbiculare; experiment: Test B: cucumber Colletotrichum anthracnose, preventive spray on cucumber seedlings; conditions: 40 ppm (marked *); 100 = 100% disease control, 0 = no control
[2] = test system: Erysiphe graminis f. sp. tritici; experiment: Test L: wheat powdery mildew, preventive spray on wheat seedlings; conditions: 40 ppm (marked *); 100 = 100% disease control, 0 = no control
[3] = test system: Puccinia recondita f. sp. tritici; experiment: Test K: wheat leaf rust, preventive spray on wheat seedlings; conditions: 40 ppm (marked *); 100 = 100% disease control, 0 = no control
Rhizoctonia oryzae = experiment: Test G: turf brown patch, preventive spray on creeping bent grass seedlings; conditions: 100 = 100% disease control
Description: (the causal agent of turf brown patch) and incubated in a saturated atmosphere at 27° C. for 24 h, and then moved to a growth chamber at 27° C. for 5 days, after which disease ratings were made.

fusarium graminearium = experiment: Test I: wheat head scab, preventive spray on wheat seedlings; conditions: 100 = 100% disease control
Description: (the causal agent of wheat head scab) and incubated in a saturated atmosphere at 20° C. for 72 h, and then moved to a growth chamber at 22° C. for 5 days, after which disease ratings were made.

Plasmopara viticola = experiment: Test D: grape downy mildew, spray after inoculation of grape seedlings; type: in vivo; conditions: 100 = 100% disease control
Source text: Upon removal, disease ratings were made. […] A dash (-) indicates no test results.

Botrytis cinerea = experiment: Test E: tomato botrytis, preventive spray on tomato seedlings; conditions: 40 ppm (marked *); 100 = 100% disease control, 0 = no control
Pythium aphanidermatum = experiment: Test A: bluegrass pythium blight, preventive spray on bluegrass seedlings; conditions: 100 = 100% disease control, 0 = no control
Septoria tritici = experiment: Test J: wheat leaf blotch, preventive spray on wheat seedlings; type: in vivo; conditions: 40 ppm (marked *); 100 = 100% disease control, 0 = no control
Source text: A dash (-) indicates no test results.

[4] = 40 ppm (marked *), 0 = no control
[5] = 200 ppm, 0 = no control relative to controls

| SMILES | Test H disease control rating (Septoria nodorum) | Test F disease control rating (Phytophthora infestans; 200 ppm, 0 = no control) [%] | Test B disease control rating [1] | Test L disease control rating [2] | Test K disease control rating [3] | Test G disease control rating (Rhizoctonia oryzae; [4]) | Test I disease control rating (fusarium graminearium; 200 ppm, 0 = no control) [%] | Test D disease control rating (Plasmopara viticola; 200 ppm, 0 = no control) [%] | Test E disease control rating (Botrytis cinerea) | Test A disease control rating (Pythium aphanidermatum; 200 ppm) [%] | Test J disease control rating (Septoria tritici) | Test F disease control rating (Phytophthora infestans; [4]) | Test I disease control rating (fusarium graminearium; [4]) | Test D disease control rating (Plasmopara viticola; [4]) | Test A disease control rating (Pythium aphanidermatum; 40 ppm (marked *)) | Test D disease control rating (Plasmopara viticola; [5]) [%] | Test F disease control rating (Phytophthora infestans; [5]) [%] | Test I disease control rating (fusarium graminearium; [5]) [%] | Test G disease control rating (Rhizoctonia oryzae; [5]) [%] |
| --- | --- | --- | --- | --- | --- | --- | --- | --- | --- | --- | --- | --- | --- | --- | --- | --- | --- | --- | --- |
| O=c1c(-n2cccn2)nc(Cl)c(-c2c(F)cccc2F)n1C1CCC1 [compound 363] | 100* % | 0 | 0* % | 99* % | 100* % | 93* % | 0 | 0 | 99* % | 0 | 59* % |  |  |  |  |  |  |  |  |
| CC(C)Cn1c(-c2c(F)cccc2F)c(Cl)nc(-c2cnccn2)c1=O.Cl [compound 364] | 0* % | 0 | 0* % | 88* % | 92* % | 16* % | 82 | 0 | 99* % | 0 | 0* % |  |  |  |  |  |  |  |  |
| O=c1c(-n2cccn2)nc(Cl)c(-c2c(F)cc(F)cc2F)n1-c1cccc(Cl)c1 [compound 373] | 99* % |  | 99* % | 100* % | 100* % | 93* % |  |  | 100* % |  | 96* % | 0* % | 78* % | 0* % | 0* % |  |  |  |  |
| Cc1ccn(-c2nc(Cl)c(-c3c(F)cc(F)cc3F)n(-c3cccc(Cl)c3)c2=O)n1 [compound 374] | 100* % |  | 100* % | 100* % | 100* % | 78* % |  |  | 99* % |  | 100* % | 0* % | 0* % | 0* % | 0* % |  |  |  |  |
| O=c1c(-n2cccn2)nc(Cl)c(-c2c(F)cc(F)cc2F)n1-c1ccccc1Cl [compound 375] | 100* % |  | 100* % | 100* % | 100* % | 95* % |  |  | 99* % |  | 100* % | 0* % | 80* % | 0* % | 0* % |  |  |  |  |
| Cc1ccn(-c2nc(Cl)c(-c3c(F)cc(F)cc3F)n(-c3ccccc3Cl)c2=O)n1 [compound 376] | 100* % |  | 100* % | 100* % | 100* % | 98* % |  |  | 99* % |  | 100* % | 0* % | 0* % |  | 0* % | 40 |  |  |  |
| O=c1c(-n2cccn2)nc(Cl)c(-c2c(F)cc(F)cc2F)n1Cc1ccc(Br)cc1 [compound 377] | 0* % |  | 31* % | 94* % | 98* % | 0* % |  |  | 99* % |  | 100* % |  |  | 0* % | 0* % |  | 0 | 0 |  |
| Cc1cccc(-n2c(-c3c(F)cccc3F)c(Cl)nc(-n3cccn3)c2=O)c1C [compound 378] | 98* % |  | 0* % | 91* % | 98* % | 51* % |  |  | 98* % |  | 100* % | 0* % | 0* % | 0* % | 0* % |  |  |  |  |
| Cc1ccn(-c2nc(Cl)c(-c3c(F)cccc3F)n(-c3cccc(C)c3C)c2=O)n1 [compound 379] | 90* % |  | 0* % | 40* % | 95* % | 0* % |  |  | 98* % |  | 100* % | 0* % | 0* % | 0* % | 0* % |  |  |  |  |
| O=c1c(-n2cccn2)nc(Cl)c(-c2c(F)cccc2F)n1-c1cccc(F)c1F [compound 380] | 99* % |  | 96* % | 99* % | 100* % |  |  |  | 99* % |  | 99* % | 0* % | 60* % | 0* % | 0* % |  |  |  | 60 |
| Cc1ccn(-c2nc(Cl)c(-c3c(F)cccc3F)n(-c3cccc(F)c3F)c2=O)n1 [compound 381] | 99* % |  | 78* % | 76* % | 100* % | 16* % |  |  | 100* % |  | 100* % | 0* % | 0* % | 0* % | 0* % |  |  |  |  |
| O=c1c(-n2cccn2)nc(Cl)c(-c2c(F)cccc2F)n1-c1ccc(F)cc1 [compound 382] | 99* % |  | 63* % | 50* % | 100* % |  |  |  | 99* % |  | 100* % | 0* % | 0* % | 0* % | 0* % |  |  |  | 16 |
| Cc1ccn(-c2nc(Cl)c(-c3c(F)cccc3F)n(-c3ccc(F)cc3)c2=O)n1 [compound 383] | 100* % |  | 63* % | 99* % | 100* % | 49* % |  |  | 99* % |  | 100* % | 0* % | 0* % | 0* % | 0* % |  |  |  |  |
| O=c1c(-n2cccn2)nc(Cl)c(-c2c(F)cccc2F)n1-c1cc(F)cc(F)c1 [compound 384] | 99* % |  | 90* % | 59* % | 100* % | 47* % |  |  | 99* % |  | 98* % | 0* % | 0* % | 15* % | 0* % |  |  |  |  |
| Cc1ccn(-c2nc(Cl)c(-c3c(F)cccc3F)n(-c3cc(F)cc(F)c3)c2=O)n1 [compound 385] | 99* % |  | 99* % | 89* % | 100* % | 78* % |  |  | 99* % |  | 100* % | 0* % | 0* % | 0* % | 0* % |  |  |  |  |
| O=c1c(-n2cccn2)nc(Cl)c(-c2c(F)cccc2F)n1-c1ccc(F)cc1F [compound 386] | 100* % |  | 87* % | 68* % | 100* % | 99* % |  |  | 99* % |  | 96* % | 0* % | 0* % | 57* % | 0* % |  |  |  |  |
| Cc1ccn(-c2nc(Cl)c(-c3c(F)cccc3F)n(-c3ccc(F)cc3F)c2=O)n1 [compound 387] | 89* % |  | 0* % | 0* % | 100* % | 60* % |  |  | 99* % |  | 99* % | 0* % | 0* % | 0* % | 0* % |  |  |  |  |
